Measured values as given in patent US20240336638A1, “IMIDAZOLE COMPOUND, AND INTERMEDIATE AND APPLICATION THEREOF” (priority 2021, published 2024).
Where two headings read alike, the source gives them in different places.

Legend:
MCAO/R rats = assay: Therapeutic administration (i.v.) in middle cerebral artery occlusion/reperfusion (MCAO/R) rats; format: in vivo, rat; conditions: for Bleeding time / Brain water content (%) / Cerebral infarction rate (%) / Clotting time / Neurological function score: once a day for 3 days, mean ± SD, n = 8; for Neurological function score: modified Bederson score
[1] = Blood-brain barrier (BBB) study in SD rats after single IV and PO administration, brain; format: in vivo; conditions: rat brain; for Cmax / Tmax / half-life / MRT last / MRT inf: Sprague-Dawley (SD); for MRT last: read-out: MRT(0−t); for MRT inf: read-out: MRT(0−∞)
Description: Effect Example 3: Pharmacokinetic and blood-brain barrier (BBB) studies of compounds after single intravenous (IV) and oral (PO) administration in SD rats
(§1) The experimental method of administration by gavage injection in rats: SD rats weighing 180 to 220 g were fasted for 12 hours prior to the experiment, with free access to water. After administration, food and water were withheld for 4 hours. After this 4-hour period, the rats were allowed free access to water, and food was provided after 8 hours. The drugs were administered at a set dose. N=3, blood samples were taken before administration, and 5 minutes, 0.25 hours, 0.5 hours, 0.75 hours, 1 hour, 2 hours, 4 hours, 8 hours, and 24 hours after administration, respectively, and placed into sodium heparin anticoagulant tubes. The tubes were centrifuged for 1 hour at 4° C. and at 8000 rpm for 5 minutes, and the plasma was then separated and stored in centrifuge tubes at −70° C. for analysis.
as §1, with “of intravenous” for “of”, “to” for “by gavage injection in”
The plasma concentration-time data were processed using the Phoenix® WinNonlin® 8.0 program to calculate pharmacokinetic parameters.
Among them, Cmax and Tmax are measured values, the elimination rate constant k of the tail section of the C-t curve is obtained from the linear regression of LnC-t, and the value of AUC0-4 is calculated by the trapezoidal area method, and the area under the curve from 0 to ∞ time is AUC=AUC0-4+Ct/k.

[2] = medium dose 6 mg/kg i.v. (Ozagrel group 6 mg/kg)

Structure (SMILES)	Bleeding time (MCAO/R rats; [2]) [s]	Brain water content (%) (MCAO/R rats; [2])	Cerebral infarction rate (%) (MCAO/R rats; [2])	Clotting time (MCAO/R rats; [2]) [s]	Neurological function score (MCAO/R rats; [2])	Cmax ([1]; IV 1 mg/kg) [ng/g]	Tmax ([1]; IV 1 mg/kg) [min]	half-life ([1]; IV 1 mg/kg) [min]	MRT last ([1]; IV 1 mg/kg) [min]	MRT inf ([1]; IV 1 mg/kg) [min]	Cmax ([1]; PO 6 mg/kg) [ng/g]	Tmax ([1]; PO 6 mg/kg) [min]	half-life ([1]; PO 6 mg/kg) [min]	MRT last ([1]; PO 6 mg/kg) [min]	MRT inf ([1]; PO 6 mg/kg) [min]	AUC(0−t) ([1]; IV 1 mg/kg) [ng·h/g]	AUC(0−∞) ([1]; IV 1 mg/kg) [ng·h/g]	AUC(0−t) ([1]; PO 6 mg/kg) [ng·h/g]	AUC(0−∞) ([1]; PO 6 mg/kg) [ng·h/g]	other results
O=C(O)[C@@H]1C[C@H]1c1ccc(Cn2ccnc2)cc1 [Compound 19, (1R,2R)-2-(4-((1H-Imidazol-1-yl)methyl)phenyl)cyclopropane-1-carboxylic acid]	274.13 ± 47.46	81.92 ± 1.66	22.38	148.63 ± 28.41	2.00 ± 0.76	36	4.8	22.8	21	33.6	168	15	46.2	73.2	79.2	16.44	19.83	289.35	296.91	Bleeding time (MCAO/R rats; high dose 12 mg/kg i.v.): 304.75 ± 35.16 s; Brain water content (%) (MCAO/R rats; high dose 12 mg/kg i.v.): 80.84 ± 1.04%; Cerebral infarction rate (%) (MCAO/R rats; high dose 12 mg/kg i.v.): 13.48%; Clotting time (MCAO/R rats; high dose 12 mg/kg i.v.): 151.19 ± 21.35 s; Neurological function score (MCAO/R rats; high dose 12 mg/kg i.v.): 1.75 ± 0.89; reducing the infarct area (smallest mean infarct rate) (MCAO/R rats; high doses, comparison among test drugs): more advantageous; cerebral edema in rats (MCAO/R rats; low and medium doses): did not significantly improve; Bleeding time (MCAO/R rats; low dose 3 mg/kg i.v.): 272.38 ± 52.89 s; Brain water content (%) (MCAO/R rats; low dose 3 mg/kg i.v.): 82.40 ± 1.50 %; Cerebral infarction rate (%) (MCAO/R rats; low dose 3 mg/kg i.v.): 28.23 ± 2.76%; Clotting time (MCAO/R rats; low dose 3 mg/kg i.v.): 136.25 ± 36.28 s; Neurological function score (MCAO/R rats; low dose 3 mg/kg i.v.): 2.00 ± 0.53
O=C(O)/C=C/c1ccc(Cn2ccnc2)cc1 [Ozagrel, reference compound]	300.00 ± 26.93	79.73 ± 2.02	21.70	154.50 ± 16.91	1.50 ± 0.93	27.6	4.8	6.6	9	10.2	42.6	15	24	35.4	40.8	4.96	5.25	35.86	37.46	
